IC50 and melting point data for one compound are collected here from US20110312934A1, “2-ALKYL-6-CYCLOAMINO-3-(PYRIDIN-4-YL)IMIDAZO[1,2-B]-PYRIDAZINE DERIVATIVES, PREPARATION THEREOF, AND THERAPEUTIC APPLICATION THEREOF” (SANOFI-AVENTIS, priority 2008, published 2011).

Series [1] deals with T1, casein kinase 1 epsilon (CK1 epsilon) (Homo sapiens, UniProt P49674).
T1 construct: Invitrogen Corporation (alternative)
The series is described as follows: Filter-plate assay of ATP-33P, inhibition of phosphorylation of casein by CK1 epsilon. Format: biochemical. To be noted: ATP-33P filtration, cold ATP 10 μM final, 2 hours at ambient temperature, read-out: CK1 epsilon Cl50. On the procedure: The capacity of the compounds of the invention to inhibit the phosphorylation of casein by casein kinase 1 epsilon and delta may be evaluated according to the procedure described in US 2005/0131012.
Filter-Plate Assay of ATP-^33P for the Screening of CK1 Epsilon Inhibitors:
The effect of the compounds on inhibition of the phosphorylation of casein by the enzyme casein kinase 1 epsilon (CK1 epsilon) is measured, using a casein assay with filtration of ATP-^33P in vitro.
Casein kinase 1 epsilon (0.58 mg/ml) is obtained via fermentation and purification processes performed according to methods that are well known to those skilled in the art, or may also be obtained from Invitrogen Corporation™ (human CK1 epsilon).
The compounds are tested at five different concentrations so as to generate IC50 values, i.e. the concentration at which a compound is capable of inhibiting the enzymatic activity by 50%, or alternatively the percentage of inhibition at a concentration of 10 micromolar.
“U”-bottomed Falcon plates are prepared by placing 5 μl of solutions of the compounds according to the invention at concentrations of 10, 1, 0.1, 0.01 or 0.001 μM in different wells. The solutions of the compounds according to the invention at these various concentrations are prepared by diluting in a test buffer (50 mM Tris, pH 7.5, […], 2 mM DTT and 1 mM EGTA) a stock solution in DMSO at a concentration of 10 mM. Next, 5 μl of dephosphorylated casein are added to a final concentration of 0.2 μg/μl, 20 μl of CK1 epsilon to a final concentration of 3 ng/μl, and 20 μl of ATP-^33P to a final concentration of 0.02 μCi/μl mixed with cold ATP (10 μM final—approximately 2×10^6 CPM per well). The final total test volume per well is equal to 50 μl.
The “U”-bottomed Falcon® test plate mentioned above is vortexed, and then incubated at ambient temperature for 2 hours. After 2 hours, the reaction is stopped by adding an ice-cold solution of 65 μl of ATP (2 mM) prepared in test buffer.
100 μl of the reaction mixture are then transferred from the “U”-bottomed Falcon® plate into Millipore® MAPH filter plates, preimpregnated with 25 μl of ice-cold 100% TCA. […]
The plates are left to dry overnight at ambient temperature. […] The radiation emitted by each well is then measured for 2 minutes in a Packard® Topcount NXT scintillation counter, in which the values of CPM/well are measured.
The percentage inhibition of the capacity of the enzyme to phosphorylate the substrate (casein) is determined for each concentration of compound tested. These inhibition data expressed as percentages are used to calculate the IC50 value for each compound compared with the controls.
The kinetic studies determined the KM value for ATP as being 21 μM in this test system.

T1 sequence (P49674 whole entry): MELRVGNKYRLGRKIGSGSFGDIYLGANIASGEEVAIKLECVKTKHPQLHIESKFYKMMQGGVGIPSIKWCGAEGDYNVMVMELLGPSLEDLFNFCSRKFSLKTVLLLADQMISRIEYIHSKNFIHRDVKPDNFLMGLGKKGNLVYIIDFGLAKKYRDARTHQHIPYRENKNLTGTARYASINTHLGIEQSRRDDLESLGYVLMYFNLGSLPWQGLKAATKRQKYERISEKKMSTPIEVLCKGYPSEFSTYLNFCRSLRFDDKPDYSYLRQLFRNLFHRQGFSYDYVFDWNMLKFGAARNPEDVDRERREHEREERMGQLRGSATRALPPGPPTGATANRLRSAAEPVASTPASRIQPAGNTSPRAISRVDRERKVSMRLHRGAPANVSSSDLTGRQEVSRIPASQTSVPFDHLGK

Turning to `Cc1nc2ccc(N3CCNCC3)nn2c1-c1ccncc1` [Compound 1, 2-Methyl-6-piperazin-1-yl-3-pyridin-4-yl-imidazo[1,2-b]pyridazine], the melting point fell in the range of 166 to 168 °C. In addition, in series [1], the IC50 turned out to be 0.057 µM.

What is called melting point is the temperature, or range, at which the solid turns liquid.
